Publication PMC8467763, “The Central PXXP Motif Is Crucial for PMAP-23 Translocation across the Lipid Bilayer” (International Journal of Molecular Sciences, 2021)
Ends that are not written are not given here.

What was measured:
[1] = tested on: Escherichia coli; type: cell-based
Method: (§1) The antimicrobial activity of the peptides was tested against gram-positive Staphylococcus aureus and gram-negative Escherichia coli by a broth microdilution method, as described previously. Briefly, a colony of bacteria was incubated in culture medium (10 mL) and incubated at 37 °C for 14–18 h. After an aliquot (50 μL) of this culture was transferred to fresh culture medium (10 mL), each bacterial strain was grown to reach the mid-logarithmic phase. A total of 100 μL of bacteria (2 × 10^6 CFU/mL) were added to 96-well microtiter plates in the presence of serial dilutions of peptides. […] Measurements were repeated at least three times in triplicate.

[2] = tested on: Staphylococcus aureus; type: cell-based
Method: as §1

Sequence	MIC E. coli [1] [µM]	MIC S. aureus [2] [µM]
RIIDLLWRVRRPQKPKFVTVWVR [PMAP-23]	2 to 4	2 to 4
RIIDLLWRVRRAQKAKFVTVWVR [PMAP-PA]	8 to 16	8 to 16
RIIDLLWRVRRGQKGKFVTVWVR [PMAP-PG]	8 to 16	–
